These results are taken from ChEMBL document CHEMBL1777702, “N⁴-[Alkyl-(hydroxyphosphono)phosphonate]-cytidine-new drugs covalently linking antimetabolites (5-FdU, araU or AZT) with bone-targeting bisphosphonates (alendronate or pamidronate)” (Bioorg Med Chem, 2011).

Data set [1] can be described thus: Binding affinity to 7 gram of hydroxyapatite at 246 mg after 24 hrs by UV-spectrophotometer analysis. The format is physicochemical.
A short description of data set [2]: Binding affinity to 5 gram of hydroxyapatite at 246 mg after 24 hrs by UV-spectrophotometer analysis. The format is physicochemical.
Data set [3] can be described thus: Binding affinity to 7 gram of hydroxyapatite at 246 mg followed by acidified with hydrochloric acid at pH 2 measured after 24 hrs by UV-spectrophotometer analysis. The following applies: pH 2, 24 h. Format: physicochemical.
Data set [4] can be described thus: Chemical stability of the compound in hydrochloric acid at pH 2. Format: physicochemical. Conditions: buffer; call rule not given here.
Another data set relates to HL-60(TB). Description: Growth inhibition of human HL-60(TB) cells assessed as cell growth at 10 uM after 48 hrs by SRB assay relative to control. The format is functional. The following applies: HL-60, 48 h, read-out: Activity.
A further data set concerns EKVX. Description: Growth inhibition of human EKVX cells assessed as cell growth at 10 uM after 48 hrs by SRB assay relative to control. The format is functional. The following applies: read-out: Activity. For orientation: In SRB staining, fixed cells bind dye roughly in proportion to their protein.
The next data set concerns HOP-62. In words: Growth inhibition of human HOP62 cells assessed as cell growth at 10 uM after 48 hrs by SRB assay relative to control. Format: functional. The following applies: HOP-62, 48 h, read-out: Activity.
In a further data set the test system is NCI-H322M. In words: Growth inhibition of human NCI-H322M cells assessed as cell growth at 10 uM after 48 hrs by SRB assay relative to control. The following applies: read-out: Activity. Format: functional.
A further data set has as its system SF-268. Description: Growth inhibition of human SF268 cells assessed as cell growth at 10 uM after 48 hrs by SRB assay relative to control. The format is functional. Conditions: SF-268, 48 h, read-out: Activity.
The test system of a further data set is SF-539. Description: Growth inhibition of human SF539 cells assessed as cell growth at 10 uM after 48 hrs by SRB assay relative to control. Conditions: SF-539, 48 h, read-out: Activity. Format: functional.
The next data set relates to SNB-75. In words: Growth inhibition of human SNB75 cells assessed as cell growth at 10 uM after 48 hrs by SRB assay relative to control. Format: functional. Conditions: SNB-75, 48 h, read-out: Activity.
The subject of the next data set is Malme-3M. In words: Growth inhibition of human MALME-3M cells assessed as cell growth at 10 uM after 48 hrs by SRB assay relative to control. Format: functional. The following applies: read-out: Activity.
The next data set concerns MDA-MB-435. In words: Growth inhibition of human MDA-MB-435 cells assessed as cell growth at 10 uM after 48 hrs by SRB assay relative to control. Format: functional. Conditions: MDA-MB-435, 48 h, read-out: Activity.
The next data set has as its system OVCAR-3. In words: Growth inhibition of human OVCAR3 cells assessed as cell growth at 10 uM after 48 hrs by SRB assay relative to control. Format: functional. The following applies: OVCAR-3, 48 h, read-out: Activity.
The subject of the next data set is CAKI-1. In words: Growth inhibition of human Caki1 cells assessed as cell growth at 10 uM after 48 hrs by SRB assay relative to control. Conditions: CAKI-1, 48 h, read-out: Activity. The format is functional.
A short description of data set [5]: Cytotoxicity against mouse LLC cells after 24 hrs by resazurin assay. Format: functional, cell-based, Lewis lung carcinoma. On the technique in general: The colour change of resazurin is a common sign of viable cells or microbes.
Data set [6] in a line: Cytotoxicity against mouse LLC cells after 72 hrs by resazurin assay. Format: functional, cell-based. The following applies: Lewis lung carcinoma.
In data set [7] the test system is RAW264.7. Description: Selectivity ratio of IC50 for mouse RAW264.7 cells to IC50 for mouse LLC cells.
For data set [8], the system named is RAW264.7.
Description: Cytotoxicity against mouse RAW264.7 cells after 24 hrs by resazurin assay
Data set [9] deals with RAW264.7. In words: cells. The following applies: Mus musculus, RAW264.7, 72 h.
Description: Cytotoxicity against mouse RAW264.7 cells after 72 hrs by resazurin assay
Setting [10] is: Mus musculus, Lewis lung carcinoma, 24 h, read-out: IC50.

SMILES strings stand for the structures.

The term IC50 denotes the point on the concentration scale where inhibition reaches its midpoint. With `O=c1nc(NCCCC(O)(P(=O)([O-])O)P(=O)([O-])O)c(F)cn1[C@H]1C[C@H](O)[C@@H](CO)O1.[Na+].[Na+]`, the Activity is given as 87% in data set [1], 41% in [2] and 74% in [3]. Besides, the Stability result in [4] was “Stable”. The growth at 10 µM came out at 62% in the data set with HL-60(TB); 82% with EKVX; 93% with HOP-62; 89% in the data set with NCI-H322M; 87% in the data set with SF-268; 95% with SF-539. The growth at 10 µM in the data set with SNB-75 worked out at 87%; in the data set on Malme-3M, 89%; with MDA-MB-435 it was 87%; with OVCAR-3, 88%; with CAKI-1, 79%. Moreover, the IC50 entry was “Not Active” in [5] (lewis lung carcinoma), 0.15 µM in [6], “Not Active” in the data set on RAW264.7 [8] and 25 µM in the data set on RAW264.7 [9]. Moreover, the “Ratio IC50” value in the data set on RAW264.7 [7] was 167.

Regarding `O=c1[nH]c(=O)n([C@H]2C[C@H](O)[C@@H](CO)O2)cc1F` [FLOXURIDINE], the Activity in data set [1] is listed as 15%. In addition, the concentration for half-maximal inhibition (IC50) is 14.2 µM in data set [5] (setting [10]), 2 µM in data set [6], “Not Active” with RAW264.7 [8] and 30 µM with RAW264.7 [9].

With `NCCCC(O)(P(=O)(O)O)P(=O)(O)O`, the IC50 in data set [5] (setting [10]) was determined as 0.43 µM; in data set [6] it was 2.62 µM.
